Legend:
MK801 treated rats [1] = experiment: Morris Water Maze (MWM) task, MK801 animal model of schizophrenia; type: in vivo, rat
Protocol: Morris Water Maze (MWM): The MWM consisted of a water pool (diameter=1.8 m; depth=0.6 m) containing water at 26±1° C. A hidden platform was located 1.5 cm below the water surface. Within the testing room, only distal visuo-spatial cues were available to the rats for location of the submerged platform. A video camera was placed above the center of the pool for tracking the rat, and a video tracking system (Noldus Information Technology b.v., Wageninpen, The Netherlands) with online digital output, directly fed data into a computer and analyzed. Data were analyzed by using an Etho-Vision automated tracking system (Noldus Information Technology).
(§1) Fifteen minutes before the behavioral procedures conducted at the fourth day, the subject was injected i.p. with an 0.1 mg/kg dose of MK801 or saline, for a total volume of 1 ml per kg of body weight. Next, the subjects passed the three behavioral procedures, described in the following paragraphs.
The MWM, a hippocampal-dependent visuo-spatial learning task, was used to assess the subjects' spatial learning/memory. The ability of an animal to locate a hidden platform submerged under water by using extra-maze cues from the test environment was examined. The rats were trained in a pool 1.8 m in diameter and 0.6 m high, containing water at 26±1° C. A 10 cm square transparent platform was hidden in a constant position in the pool submerged 1 cm below the water level. Within the testing room only distal visuo-spatial cues were available to the rats for location of the submerged platform.
Rats were given four trials per day, to find the hidden platform (acquisition phase). The escape latency, i.e., the time required by the rat to find and climb onto the platform, was recorded for up to 120 sec. Each rat was allowed to remain on the platform for 30 sec, and was then removed to its home cage.
Morris Water Maze (MWM): Escape latency, the time between placing the rat in the pool until it located the platform, was measured during behavioral testing. The escape latency was analyzed by means of […] repeated measures analysis of variance (ANOVA) with a between-subjects measure of ‘group’ (treatment group) and a within-subjects measure of ‘trail’ (effects amongst groups in the four different trials).
The MWM test was then performed (see FIG. 1 for results). A significant main effect of ‘group’, ‘trail’ and a significant ‘group’×‘trails’ interaction was found in the repeated measured ANOVA for the MWM task [F(5,35)=9.699, p<0.001; F(3,33)=31.551, p<0.001; F(15,91)=1.824, p<0.05; respectively].

[2] = Body weight change 12 weeks after start of treatment, adjuvant study; type: in vivo, human; conditions: atypical antipsychotic drug+minocycline 200 mg/day
Protocol: The study was carried out in patients who experience first psychotic episode, and has followed the patient for a total duration of 6 months. As the study examines Minocycline as an adjuvant drug, the sample includes patients receiving one of the following atypical anti-psychotic drugs: Risperdal, Zyprexa, Geodon, Seroquel, and Leponex. […] Minocycline was given as an add-on therapy. Prior to randomization into minocycline/placebo adjuvant treatment, a preliminary (lead-in phase) screening phase of placebo treatment was undertaken: Placebo was given as an adjuvant to all patients for two weeks. […] Randomization was then carried out by the principal investigator. The raters and evaluators of the subjects participating in the study were blind to the randomization. […] The body weight of the patients was measured at the start of the study and then 12 weeks later (FIG. 12).

MK801 treated rats [3] = experiment: Habituation of the Acoustic Startle Response (ASR), MK801 animal model; type: in vivo, rat
Protocol: Acoustic Startle Response (ASR) and Pre-Pulse Inhibition (PPI): Both experimental paradigms were performed in a room that was adjacent to the laboratory facilities and the animal stall and that was not used for other experiments. The animals were tested in squad of two with startle chambers counterbalanced across the different experimental groups. Startle response and prepulse inhibition were measured using two ventilated startle chambers (SR-LAB system, San Diego Instruments, San Diego, Calif.). Each chamber consisted of a Plexiglas cylinder resting on a platform inside a sound-attenuated, ventilated chamber. A high-frequency loudspeaker inside the chamber produced both a continuous broadband background noise of 70 dB and the various acoustic stimuli. Movement inside the tube was detected by a piezoelectric accelerometer below the frame. The amplitude of the whole body startle to an acoustic pulse was defined as the average of 100 one-msec accelerometer readings collected from pulse onset. These signals were then digitized and stored by a computer. Sound levels within each test chamber were measured routinely using a sound level meter (Radio Shack) to ensure consistent presentation. The SR-LAB calibration unit was used routinely to ensure consistent stabilimeter sensitivity between test chambers and over time (Swerdlow and Geyer, 1998, Schizophrenia Bulletin, 24(2), 285-301).
as §1
ASR and PPI were measured using two startle chambers, with each chamber consisting of a Plexiglas cylinder resting on a platform inside a sound-attenuated, ventilated chamber (see also materials section). The animals were tested in pairs with startle chambers counterbalanced across the different experimental groups.
The ASR test measured the ability of the animal to habituate to repetitive loud pulses of noise. […] Movement inside the tube was detected by a piezoelectric accelerometer below the frame. The amplitude of the whole body startle to an acoustic pulse was defined as the average of 100 one-msec accelerometer readings collected from pulse onset. […]
Acoustic Startle Response (ASR): The decrease in ASR in the groups was calculated as the percent of amplitude decrease between the mean of the first five amplitude values and the mean of the last 25 amplitude values.
Percent habituation=100×[(average startle amplitude in Block 1)−(average startle amplitude in Block 5)/(average startle amplitude in Block 1)]. Results were analyzed by two-way ANOVA a between-subject measure of ‘group’ (treatment group).

Structure (SMILES): CN(C)c1ccc(O)c2c1C[C@H]1C[C@H]3[C@H](N(C)C)C(O)=C(C(N)=O)C(=O)[C@@]3(O)C(O)=C1C2=O [minocycline]
- escape latency, impairments induced by MK801 (MK801 treated rats [1]; main procedure: minocycline 35 mg/kg x 3 days, MK801 0.1 mg/kg i.p.): reduce the impairments induced by MK801
- escape latency, trail 4 (MK801 treated rats [1]; minocycline 35 mg/kg before MK801, vs MK801 group, p<0.05): significant difference when compared to the MK801 group
- escape latency, improvement compared with haloperidol (MK801 treated rats [1]; minocycline 35 mg/kg+MK801 vs haloperidol 0.4 mg/kg+MK801): somewhat more significant than that caused by haloperidol
- dose dependence of effect in the MWM task (MK801 treated rats [1]; minocycline 20, 25, 30, 35 mg/kg before MK801): good dose dependent effect
- escape latency (MK801 treated rats [1]; minocycline 20 and 25 mg/kg for three consecutive days before MK801, vs saline and MK801 groups): no significant differences with the MK801 treated rats
- escape latency (MK801 treated rats [1]; minocycline 30 and 35 mg/kg for three consecutive days before MK801, vs saline group): did not differ from the saline treated group
- proportion of patients who gained weight [2]: 31%
- proportion of patients who lost weight [2]: 46%
- percent habituation of the startle response (% habituation) (MK801 treated rats [3]; drug alone (no MK801) vs saline treated animals): no effect on habituation of ASR
- percent habituation of the startle response (% habituation) (MK801 treated rats [3]; drug+MK801 0.1 mg/kg i.p., minocycline 35 mg/kg x 3 days pretreatment, haloperidol 0.4 mg/kg i.p.): able to prevent the deficits induced by MK801

From patent publication US20130190275A1, “COMBINED THERAPIES OF ANTIPSYCHOTIC DRUGS AND TETRACYCLINES IN THE TREATMENT OF PSYCHIATRIC DISORDERS” (MOR RESEARCH APPLICATIONS LTD., priority 2006, published 2013)
